# Measured values as given in PubChem BioAssay AID1963862 (Molecular Pharmacology Branch, DTP, NCI, 2024).
# pIC50: −log10 of the molar value.
# Test system: KRAS patient-derived spheroids with HUVEC/MSC, viability
# Assay: Anticancer human tumor 941728-121-R-J1-PDC patient-derived lung adenocarcinoma cell line growth inhibition [KRAS2]
# Details: for pIC50: curve of first compound; for viability, T/C: stronger effect = lower value
# How it was run: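 KRAS-mutant tumor cells were grown as spheroids with HUVEC endothelial cells and human MSCs as stroma. Targeted agents were tested alone and with KRAS pathway inhibitors. Doses started at or near clinical Cmax, or 10 microM, descending half-log.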
# [1] = second compound 0.1 µM, first compound 0.0316 µM
# [2] = second compound 0.1 µM, first compound 0.1 µM
# [3] = second compound 0.1 µM, first compound 0.316 µM
# [4] = second compound 0.1 µM, first compound 1 µM
# [5] = second compound 0.1 µM, first compound 3.16 µM
# [6] = second compound 0.1 µM, first compound 10 µM
# [7] = second compound 0.316 µM, first compound 0.0316 µM
# [8] = second compound 0.316 µM, first compound 0.1 µM
# [9] = second compound 0.316 µM, first compound 0.316 µM
# [10] = second compound 0.316 µM, first compound 1 µM
# [11] = second compound 0.316 µM, first compound 3.16 µM
# [12] = second compound 0.316 µM, first compound 10 µM
# [13] = second compound 1 µM, first compound 0.0316 µM
# [14] = second compound 1 µM, first compound 0.1 µM
# [15] = second compound 1 µM, first compound 0.316 µM
# [16] = second compound 1 µM, first compound 1 µM
# [17] = second compound 1 µM, first compound 3.16 µM
# [18] = second compound 1 µM, first compound 10 µM
# [19] = second compound 3.16 µM, first compound 0.0316 µM
# [20] = second compound 3.16 µM, first compound 0.1 µM
# [21] = second compound 3.16 µM, first compound 0.316 µM
# [22] = second compound 3.16 µM, first compound 1 µM
# [23] = second compound 3.16 µM, first compound 3.16 µM
# [24] = second compound 3.16 µM, first compound 10 µM
# [25] = second compound 10 µM, first compound 0.0316 µM
# [26] = second compound 10 µM, first compound 0.1 µM
# [27] = second compound 10 µM, first compound 0.316 µM
# [28] = second compound 10 µM, first compound 1 µM
# [29] = second compound 10 µM, first compound 3.16 µM
# [30] = second compound 10 µM, first compound 10 µM
# [31] = second compound 0.1 µM, first compound 0.000316 µM
# [32] = second compound 0.1 µM, first compound 0.001 µM
# [33] = second compound 0.1 µM, first compound 0.00316 µM
# [34] = second compound 0.1 µM, first compound 0.01 µM
# [35] = second compound 0.316 µM, first compound 0.000316 µM
# [36] = second compound 0.316 µM, first compound 0.001 µM
# [37] = second compound 0.316 µM, first compound 0.00316 µM
# [38] = second compound 0.316 µM, first compound 0.01 µM
# [39] = second compound 1 µM, first compound 0.000316 µM
# [40] = second compound 1 µM, first compound 0.001 µM
# [41] = second compound 1 µM, first compound 0.00316 µM
# [42] = second compound 1 µM, first compound 0.01 µM
# [43] = second compound 3.16 µM, first compound 0.000316 µM
# [44] = second compound 3.16 µM, first compound 0.001 µM
# [45] = second compound 3.16 µM, first compound 0.00316 µM
# [46] = second compound 3.16 µM, first compound 0.01 µM
# [47] = second compound 10 µM, first compound 0.000316 µM
# [48] = second compound 10 µM, first compound 0.001 µM
# [49] = second compound 10 µM, first compound 0.00316 µM
# [50] = second compound 10 µM, first compound 0.01 µM
# 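Also: spheroids exposed to agents for seven days before readout.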
SMILES,pIC50 (second compound 0.1 µM),pIC50 (second compound 0.316 µM),pIC50 (second compound 1 µM),pIC50 (second compound 3.16 µM),pIC50 (second compound 10 µM),"viability, T/C [1] [%]","viability, T/C [2] [%]","viability, T/C [3] [%]","viability, T/C [4] [%]","viability, T/C [5] [%]","viability, T/C [6] [%]","viability, T/C [7] [%]","viability, T/C [8] [%]","viability, T/C [9] [%]","viability, T/C [13] [%]","viability, T/C [14] [%]","viability, T/C [19] [%]","viability, T/C [20] [%]","viability, T/C [25] [%]","viability, T/C [26] [%]",other results
CC(C)NCC(C(=O)N1CCN(c2ncnc3c2C(C)CC3O)CC1)c1ccc(Cl)cc1 (stereo not given) + COc1cc2nc(C)nc(NC(C)c3cc(N)cc(C(F)(F)F)c3)c2cc1OC1CCOC1,7.49,> 7.50,> 7.50,> 7.50,> 7.50,49.7,46.5,34.1,23.4,11.8,8.21,44,41.4,32.5,40.4,34.8,35.1,35.2,13.4,9.39,"viability, T/C [10]: 21.5%; viability, T/C [11]: 10.3%; viability, T/C [12]: 11.1%; viability, T/C [15]: 29.7%; viability, T/C [16]: 23.1%; viability, T/C [17]: 10.3%; viability, T/C [18]: 1.68%; viability, T/C [21]: 36.7%; viability, T/C [22]: 13%; viability, T/C [23]: 5.96%; viability, T/C [24]: 5.42%; viability, T/C [27]: 3.04%; viability, T/C [28]: 1.04%; viability, T/C [29]: 0.52%; viability, T/C [30]: 0.66%"
CC(C)n1nc(-c2ccc3oc(N)nc3c2)c2c(N)ncnc21 + COc1cc2nc(C)nc(NC(C)c3cc(N)cc(C(F)(F)F)c3)c2cc1OC1CCOC1,> 9.50,> 9.50,> 9.50,> 9.50,> 9.50,31,28.3,–,–,–,–,24.9,16.7,–,19.9,12.8,12.6,4.73,0.71,4.65,"viability, T/C [31]: 41.2%; viability, T/C [32]: 47.9%; viability, T/C [33]: 40.9%; viability, T/C [34]: 33.3%; viability, T/C [35]: 42.4%; viability, T/C [36]: 50%; viability, T/C [37]: 40.4%; viability, T/C [38]: 24.3%; viability, T/C [39]: 40.8%; viability, T/C [40]: 37%; viability, T/C [41]: 26.1%; viability, T/C [42]: 19.8%; viability, T/C [43]: 31.4%; viability, T/C [44]: 31.9%; viability, T/C [45]: 18.5%; viability, T/C [46]: 15%; viability, T/C [47]: 7.59%; viability, T/C [48]: 6.39%; viability, T/C [49]: 2.23%; viability, T/C [50]: 2.22%"
CC1(C)CCC(CN2CCN(c3ccc(C(=O)NS(=O)(=O)c4ccc(NCC5CCOCC5)c([N+](=O)[O-])c4)c(Oc4cnc5[nH]ccc5c4)c3)CC2)=C(c2ccc(Cl)cc2)C1 + COc1cc2nc(C)nc(NC(C)c3cc(N)cc(C(F)(F)F)c3)c2cc1OC1CCOC1,> 7.50,> 7.50,> 7.50,> 7.50,> 7.50,38.8,40.6,36.4,33.9,6.79,4.58,36.7,33,38.5,35.2,46.4,39.2,34,19.6,19.7,"viability, T/C [10]: 31.8%; viability, T/C [11]: 7.02%; viability, T/C [12]: 3.43%; viability, T/C [15]: 34.4%; viability, T/C [16]: 32.2%; viability, T/C [17]: 7.71%; viability, T/C [18]: 1.61%; viability, T/C [21]: 32.2%; viability, T/C [22]: 29.6%; viability, T/C [23]: 5.76%; viability, T/C [24]: 3.49%; viability, T/C [27]: 17.5%; viability, T/C [28]: 7.37%; viability, T/C [29]: 1.44%; viability, T/C [30]: 0.52%"
COc1cc(Nc2ncc3c(n2)-c2ccc(Cl)cc2C(c2c(F)cccc2OC)=NC3)ccc1C(=O)O + COc1cc2nc(C)nc(NC(C)c3cc(N)cc(C(F)(F)F)c3)c2cc1OC1CCOC1,> 7.50,> 7.50,> 7.50,> 7.50,> 7.50,52.4,44.5,44.1,47.7,42.1,42.1,41,42.3,44.1,34.7,38,34.2,32.6,12.4,14.3,"viability, T/C [10]: 40.2%; viability, T/C [11]: 40.7%; viability, T/C [12]: 37.3%; viability, T/C [15]: 36.5%; viability, T/C [16]: 38.2%; viability, T/C [17]: 33.9%; viability, T/C [18]: 31.4%; viability, T/C [21]: 36.6%; viability, T/C [22]: 30.6%; viability, T/C [23]: 23%; viability, T/C [24]: 19.7%; viability, T/C [27]: 7.81%; viability, T/C [28]: 4.39%; viability, T/C [29]: 6.63%; viability, T/C [30]: 3.43%"
COc1cc2nccc(Oc3ccc(NC(=O)C4(C(=O)Nc5ccc(F)cc5)CC4)cc3)c2cc1OC + COc1cc2nc(C)nc(NC(C)c3cc(N)cc(C(F)(F)F)c3)c2cc1OC1CCOC1,6.84,> 7.50,> 7.50,> 7.50,> 7.50,57.4,55.2,38.9,25.9,31.4,57.4,34.7,41.7,27.6,25.5,29.6,30.9,35.1,13.3,2.98,"viability, T/C [10]: 17.3%; viability, T/C [11]: 21.7%; viability, T/C [12]: 35.6%; viability, T/C [15]: 23.3%; viability, T/C [16]: 9.41%; viability, T/C [17]: 17.2%; viability, T/C [18]: 29.5%; viability, T/C [21]: 19.7%; viability, T/C [22]: 3.69%; viability, T/C [23]: 0.11%; viability, T/C [24]: 35.2%; viability, T/C [27]: 1.83%; viability, T/C [28]: 0.25%; viability, T/C [29]: 0.13%; viability, T/C [30]: 15.1%"
Cn1ncnc1[C@H]1c2n[nH]c(=O)c3cc(F)cc(c23)N[C@@H]1c1ccc(F)cc1 + COc1cc2nc(C)nc(NC(C)c3cc(N)cc(C(F)(F)F)c3)c2cc1OC1CCOC1,< 7.00,> 9.50,> 9.50,> 9.50,> 9.50,66.2,58.8,–,–,–,–,47.6,48,–,33.5,28.7,22.1,23.6,9.61,10.3,"viability, T/C [31]: 61.1%; viability, T/C [32]: 51.9%; viability, T/C [33]: 47.1%; viability, T/C [34]: 52.2%; viability, T/C [35]: 48.9%; viability, T/C [36]: 41.8%; viability, T/C [37]: 36.7%; viability, T/C [38]: 36.8%; viability, T/C [39]: 41.6%; viability, T/C [40]: 31.4%; viability, T/C [41]: 30.7%; viability, T/C [42]: 25.6%; viability, T/C [43]: 36.6%; viability, T/C [44]: 34.4%; viability, T/C [45]: 32.1%; viability, T/C [46]: 27.4%; viability, T/C [47]: 14.5%; viability, T/C [48]: 11.8%; viability, T/C [49]: 13.1%; viability, T/C [50]: 8%"
